“And” between values parts separate entries of the source, which are not always exact repeats. Equal entries are not always repeated. Structures can show the parent of a compound that is named as a salt. Where two headings read alike, the source gives them in different places.
Key:
platelet aggregation = assay: animal or person; type: in vivo; settings: Rattus norvegicus, read-out: Aggregation inhibition (%)
Excerpt: The positive control and the test compounds (prepared in the above examples) were formulated in 0.5% CMC-Na (carboxymethylcellulose sodium) into suspensions for administration to animals.
Animals: male SD rats, weighed about 250 g, and supplied by Shanghai Super-B&K Laboratory Animal Corp. Ltd. Animal certificate No.: 2008001605451, and license No.: SCXK (Hu); SCXK (Hu) 2008-0016.
Instruments: a centrifuge (80-2 bench top low-speed centrifuge), an automatic platelet aggregation tester (STELLEXLG-PAPER-I platelet coagulation/aggregation analyzer), and others.
Methods: the pharmacological activity test of the compounds of the present invention for platelet aggregation was performed following Born's turbidimetric method (Nature, 1962, 194(4832): 927). An agglomeration-promoting substance, adenosine diphosphate (ADP), was added to a platelet rich plasma (PRP), and stirred to allow platelets to aggregate. […] This experiment can be used to evaluate the platelet aggregation effect induced by the test compounds administrated in-vivo or in-vitro.
The PRP was adjusted with a platelet poor plasma (PPP) to maintain the platelet counts at […]. The PRP was taken into a test cup, and incubated at 37° C. for 10 min. Light transmission was adjusted to 0% with PRP and to 100% with PPP for each measurement. By using ADP (with a final concentration of 5 μM) as an inducer, the platelet aggregation percentages were measured through the turbidimetric method using a platelet aggregation tester, and statistically compared by t-test. The platelet aggregation inhibition was calculated by the equation: platelet aggregation inhibition (%)=[1−(aggregation percent in dosed tube/aggregation percent in control tube)]×100%.

[1] = Pharmacokinetics and bioavailability of Compound I-2 in rats (plasma Compound IV-1 by LC-MS/MS); type: in vivo, rat; settings: for Concentration of Compound IV-1 in plasma, single animals / concentration at 0.08 h / concentration at 0.167 h / concentration at 0.5 h / concentration at 1 h / concentration at 2 h / concentration at 4 h / concentration at 6 h: intravenous injection 8 μmol/kg; for concentration at 0.08 h / concentration at 0.167 h / concentration at 0.5 h / concentration at 1 h / concentration at 2 h / concentration at 4 h / concentration at 6 h: 8 μmol/kg
Excerpt: The rats were fasted overnight, but allowed free access to water.

[2] = male SD rats, oral gavage 3 mg/kg, blood after 2 hrs, ADP 5 μM
[3] = male SD rats, oral gavage 10 mg/kg, blood after 2 hrs, ADP 5 μM
[4] = SD rats, intravenous injection 8 μmol/kg (2.7 mg/kg), individual animal

Compound: COC(=O)[C@H](c1ccccc1Cl)N1CCc2sc(OC(=O)Cc3ccccc3)cc2C1 [Compound I-12, (S)-Methyl 2-(2-phenylacetoxy-6,7-dihydrothieno[3,2-c]pyridin-5(4H)-yl)-2-(2-chlorophenyl)-acetate]
- inhibition at 3 mg/kg (platelet aggregation; [2]): 18.3%

Compound: COC(=O)[C@H](c1ccccc1Cl)N1CCc2sccc2C1 [Clopidogrel sulfate, reference compound]
- inhibition at 3 mg/kg (platelet aggregation; po, 2 h): 15.4%
- inhibition at 10 mg/kg (platelet aggregation; po, 2 h): 79.6%

Compound: COC(=O)[C@H](c1ccccc1Cl)N1CCc2sc(OC(=O)c3ccc(OC)cc3)cc2C1 [Compound I-11, (S)-Methyl 2-(2-(4-methoxybenzoyloxy)-6,7-dihydrothieno[3,2-c]pyridin-5(4H)-yl)-2-(2-chlorophenyl)-acetate]
- inhibition at 3 mg/kg (platelet aggregation; [2]): 13.6%

Compound: COC(=O)C(c1ccccc1Cl)N1CCc2sc(OC(C)=O)cc2C1 (racemic) [I-2″, (R,S)-Methyl 2-(2-acetoxy-6,7-dihydrothieno[3,2-c]pyridin-5(4H)-yl)-2-(2-chlorophenyl)-acetate]
- inhibition at 3 mg/kg (platelet aggregation; [2]): 43.9%
- inhibition at 10 mg/kg (platelet aggregation; [3]): 78.5%

Compound: COC(=O)[C@H](c1ccccc1Cl)N1CCc2sc(OC(=O)N3CCCC3)cc2C1 [Compound I-22, (S)-Methyl 2-(2-(pyrrolidine-1-carbonyloxy)-6,7-dihydrothieno[3,2-c]pyridin-5(4H)-yl)-2-(2-chlorophenyl)-acetate]
- inhibition at 3 mg/kg (platelet aggregation; po, 2 h): 20.3%

Compound: COC(=O)[C@H](c1ccccc1Cl)N1CCc2sc(OC(=O)c3ccccc3OC(C)=O)cc2C1 [Compound I-5, (S)-methyl 2-(2-(2-acetoxybenzoyloxy)-6,7-dihydrothieno[3,2-c]pyridin-5(4H)-yl)-2-(2-chlorophenyl)-acetate]
- inhibition at 3 mg/kg (platelet aggregation; po, 2 h): 55.1%

Compound: COC(=O)[C@H](c1ccccc1Cl)N1CCc2sc(OC(C)=O)cc2C1 [Compound I-2, (S)-Methyl 2-(2-acetoxy-6,7-dihydrothieno[3,2-c]pyridin-5(4H)-yl)-2-(2-chlorophenyl)-acetate]
- inhibition at 3 mg/kg (platelet aggregation; [2]): 69.9%
- inhibition at 10 mg/kg (platelet aggregation; [3]): 83.5%

Compound: COC(=O)[C@H](c1ccccc1Cl)N1CCc2sc(OC(=O)OCC(C)C)cc2C1 [Compound I-15, (S)-Methyl 2-(2-(isobutoxycarbonyloxy)-6,7-dihydrothieno[3,2-c]pyridin-5(4H)-yl)-2-(2-chlorophenyl)-acetate]
- inhibition at 3 mg/kg (platelet aggregation; [2]): 45.3%

Compound: COC(=O)[C@@H](c1ccccc1Cl)N1CCc2sc(OC(C)=O)cc2C1 [I-2′]
- inhibition at 3 mg/kg (platelet aggregation; [2]): 27.1%
- inhibition at 10 mg/kg (platelet aggregation; [3]): 55.3%

Compound: COC(=O)[C@H](c1ccc(Cl)cc1)N1CCc2sc(OC(C)=O)cc2C1 [Compound I-20, (S)-Methyl 2-(2-acetoxy-6,7-dihydrothieno[3,2-c]pyridin-5(4H)-yl)-2-(4-chlorophenyl)-acetate]
- inhibition at 3 mg/kg (platelet aggregation; [2]): 17.6%

Compound: COC(=O)[C@H](c1ccccc1)N1CCc2sc(OC(C)=O)cc2C1 [Compound I-21, (S)-Methyl 2-(2-acetoxy-6,7-dihydrothieno[3,2-c]pyridin-5 (4H)-yl)-2-phenyl-acetate]
- inhibition at 3 mg/kg (platelet aggregation; [2]): 9.1%

Compound: CCC(=O)Oc1cc2c(s1)CCN([C@H](C(=O)OC)c1ccccc1Cl)C2 [Compound I-3, (S)-Methyl 2-(2-propanoyloxy-6,7-dihydrothieno[3,2-c]pyridin-5(4H)-yl)-2-(2-chlorophenyl)-acetate]
- inhibition at 3 mg/kg (platelet aggregation; [2]): 38.4%

Compound: COC(=O)[C@H](c1ccccc1Cl)N1CCC2SC(=O)C=C2C1 (stereo partly drawn) [IV-1, (2S)-Methyl 2-(2-oxo-7,7a-dihydrothieno[3,2-c]pyridin-5 (2H,4H,6H)-yl)-2-(2-chlorophenyl)-acetate]
- AUC0-t of Compound IV-1, single animals [1, 4]: 304 ng·h/mL and 229 ng·h/mL
- AUC0-∞ of Compound IV-1, single animals [1, 4]: 306 ng·h/mL and 229 ng·h/mL
- CLtot of Compound IV-1, single animals [1, 4]: 147 mL/min/kg and 197 mL/min/kg
- Cmax of Compound IV-1, single animals [1, 4]: 785 ng/mL and 533 ng/mL
- V2 of Compound IV-1, single animals [1, 4]: 18.8 L/kg and 15.9 L/kg and 10.9 L/kg
- t1/2 of Compound IV-1, single animals [1, 4]: 78 min and 75 min and 38.6 min
- V2 of Compound IV-1, Mean ([1]; SD rats, intravenous injection 8 μmol/kg (2.7 mg/kg), mean of 3): 15.2 L/kg
- Concentration of Compound IV-1 in plasma, single animals ([1]; SD rats, 0.08 h, individual animal): 785 ng/mL and 533 ng/mL
- Concentration of Compound IV-1 in plasma, single animals ([1]; SD rats, 0.167 h, individual animal): 417 ng/mL and 311 ng/mL
- Concentration of Compound IV-1 in plasma, single animals ([1]; SD rats, 0.5 h, individual animal): 129 ng/mL and 107 ng/mL
- Concentration of Compound IV-1 in plasma, single animals ([1]; SD rats, 1 h, individual animal): 49.3 ng/mL and 37.3 ng/mL
- Concentration of Compound IV-1 in plasma, single animals ([1]; SD rats, 2 h, individual animal): 9.06 ng/mL and 9.74 ng/mL
- Concentration of Compound IV-1 in plasma, single animals ([1]; SD rats, 4 h, individual animal): 2.87 ng/mL and 2.02 ng/mL
- Concentration of Compound IV-1 in plasma, single animals ([1]; SD rats, 6 h, individual animal): 0.977 ng/mL and 1.06 ng/mL
- AUC(0-t) ([1]; male, SD, rat, plasma, iv, 2.7 mg/kg, intravenous injection 8 μmol/kg (2.7 mg/kg), individual animal, read-out: AUC0-t of Compound IV-1, single animals): 266 ng·h/mL
- AUC(0-inf) ([1]; male, SD, rat, plasma, iv, 2.7 mg/kg, intravenous injection 8 μmol/kg (2.7 mg/kg), individual animal, read-out: AUC0-∞ of Compound IV-1, single animals): 269 ng·h/mL
- clearance ([1]; male, SD, rat, plasma, iv, 2.7 mg/kg, intravenous injection 8 μmol/kg (2.7 mg/kg), individual animal, read-out: CLtot of Compound IV-1, single animals (converted)): 167 mL/min/kg
- Cmax ([1]; male, SD, rat, plasma, iv, 2.7 mg/kg, intravenous injection 8 μmol/kg (2.7 mg/kg), individual animal, read-out: Cmax of Compound IV-1, single animals): 696 ng/mL
- clearance ([1]; male, SD, rat, plasma, iv, 2.7 mg/kg, intravenous injection 8 μmol/kg (2.7 mg/kg), mean of 3, read-out: CLtot of Compound IV-1, Mean (converted)): 170 mL/min/kg
- Tmax ([1]; male, Sprague-Dawley, rat, plasma, 8 umol/kg, SD rats, intravenous injection 8 μmol/kg (2.7 mg/kg), mean of 3, read-out: Tmax of Compound IV-1, Mean): 4.98 min
- AUC(0-t) ([1]; male, Sprague-Dawley, rat, plasma, iv, 8 umol/kg, SD rats, intravenous injection 8 μmol/kg (2.7 mg/kg), mean of 3, read-out: AUC0-t of Compound IV-1, Mean): 266 ± 37.6 ng·h/mL
- AUC(0-inf) ([1]; male, Sprague-Dawley, rat, plasma, iv, 8 umol/kg, SD rats, intravenous injection 8 μmol/kg (2.7 mg/kg), mean of 3, read-out: AUC0-∞ of Compound IV-1, Mean): 268 ± 38.3 ng·h/mL
- Cmax ([1]; male, Sprague-Dawley, rat, plasma, iv, 8 umol/kg, SD rats, intravenous injection 8 μmol/kg (2.7 mg/kg), mean of 3, read-out: Cmax of Compound IV-1, Mean): 671 ± 128 ng/mL
- half-life ([1]; male, Sprague-Dawley, rat, plasma, iv, 8 umol/kg, SD rats, intravenous injection 8 μmol/kg (2.7 mg/kg), mean of 3, read-out: t1/2 of Compound IV-1, Mean (converted)): 63.6 ± 21.8 min
- concentration at 0.08 h ([1]; male, Sprague-Dawley, rat, plasma, iv, SD rats, 0.08 h, individual animal, read-out: Concentration of Compound IV-1 in plasma, single animals): 696 ng/mL
- concentration at 0.08 h ([1]; male, Sprague-Dawley, rat, plasma, iv, SD rats, 0.08 h, mean of 3, read-out: Concentration of Compound IV-1 in plasma, Mean): 671 ng/mL
- concentration at 0.167 h ([1]; male, Sprague-Dawley, rat, plasma, iv, SD rats, 0.167 h, individual animal, read-out: Concentration of Compound IV-1 in plasma, single animals): 317 ng/mL
- concentration at 0.167 h ([1]; male, Sprague-Dawley, rat, plasma, iv, SD rats, 0.167 h, mean of 3, read-out: Concentration of Compound IV-1 in plasma, Mean): 348 ng/mL
- concentration at 0.5 h ([1]; male, Sprague-Dawley, rat, plasma, iv, SD rats, 0.5 h, individual animal, read-out: Concentration of Compound IV-1 in plasma, single animals): 108 ng/mL
- concentration at 0.5 h ([1]; male, Sprague-Dawley, rat, plasma, iv, SD rats, 0.5 h, mean of 3, read-out: Concentration of Compound IV-1 in plasma, Mean): 115 ng/mL
- concentration at 1 h ([1]; male, Sprague-Dawley, rat, plasma, iv, SD rats, 1 h, individual animal, read-out: Concentration of Compound IV-1 in plasma, single animals): 51 ng/mL
- concentration at 1 h ([1]; male, Sprague-Dawley, rat, plasma, iv, SD rats, 1 h, mean of 3, read-out: Concentration of Compound IV-1 in plasma, Mean): 45.9 ng/mL
- concentration at 2 h ([1]; male, Sprague-Dawley, rat, plasma, iv, SD rats, 2 h, individual animal, read-out: Concentration of Compound IV-1 in plasma, single animals): 10.9 ng/mL
- concentration at 2 h ([1]; male, Sprague-Dawley, rat, plasma, iv, SD rats, 2 h, mean of 3, read-out: Concentration of Compound IV-1 in plasma, Mean): 9.9 ng/mL
- concentration at 4 h ([1]; male, Sprague-Dawley, rat, plasma, iv, SD rats, 4 h, individual animal, read-out: Concentration of Compound IV-1 in plasma, single animals): 3.94 ng/mL
- concentration at 4 h ([1]; male, Sprague-Dawley, rat, plasma, iv, SD rats, 4 h, mean of 3, read-out: Concentration of Compound IV-1 in plasma, Mean): 2.94 ng/mL
- concentration at 6 h ([1]; male, Sprague-Dawley, rat, plasma, iv, SD rats, 6 h, individual animal, read-out: Concentration of Compound IV-1 in plasma, single animals): 1.29 ng/mL
- concentration at 6 h ([1]; male, Sprague-Dawley, rat, plasma, iv, SD rats, 6 h, mean of 3, read-out: Concentration of Compound IV-1 in plasma, Mean): 1.11 ng/mL
- Tmax ([1]; male, rat, plasma, SD rats, intravenous injection 8 μmol/kg (2.7 mg/kg), individual animal, read-out: Tmax of Compound IV-1, single animals): 4.98 min
